Test results published in patent US20020122768A1, “Stable radiopharmaceutical compositions and methods for preparation thereof” (priority 2000, published 2002).
Marks after values point to notes of the source that are not given here.

Legend:
Assay type in all cases: physicochemical
[1] = Solution stability of ^90Y-A at room temperature, RCP by radio-HPLC; settings: room temperature; for RCP (%) t = 0 h / RCP (%) t = 24 h / RCP (%) t = 48 h / RCP (%) t = 120 h / RCP (%) t = 144 h / RCP (%) t = 72 h / RCP (%) t = 148 h: ^90Y-A (~20 mCi); for RCP (%) change: ^90Y-A, t = 0 h to last time point
Method: The advantage of using HPLC is that radio-impurities caused by radiolytic degradation can be separated from the radiopharmaceutical under optimized chromatographic conditions.
(§1) The initial RCP of a radiopharmaceutical is largely dependent on radiolabeling conditions such as pH, heating temperature and time. Once a radiopharmaceutical is prepared in high yield, the stability of the radiopharmaceutical composition is measured by the` RCP change of the radiopharmaceutical over a certain period of time.
Analytical Methods. HPLC method 1 used a HP-1100 HPLC system with a UV/visible detector (λ=220 nm), an IN-US radio-detector, and a Zorbax C18 column (4.6 mm×250 mm, 80 Å pore size).
The ITLC method used Gelman Sciences silica-gel ITLC paper strips and 1:1 mixture of acetone and saline as eluant.
(§2) The reaction mixture was heated at 100° C. for 10 min. A sample of the resulting solution was first diluted 20-fold with 2 mM DTPA solution (pH=5), and was then analyzed by HPLC (Method 1, injection volume=1-2 μL) and ITLC. […] The resulting solution was kept at room temperature for 6 days.
as §2, §2
The reaction mixture was heated at 100° C. for 10 min. A sample of the resulting solution was first diluted 20-fold with 2 mM DTPA solution (pH=5), and was then analyzed by HPLC (Method 1, injection volume 1-2 μL) and ITLC. […] The resulting solution was kept at room temperature for 7 days.
(§3) The reaction mixture was heated at 100° C. for 10 min. A sample of the resulting solution was first diluted 20-fold with 2 mM DTPA solution (pH=5), and was then analyzed by HPLC (Method 1, injection volume=1-2 μL) and ITLC. […] The resulting solution was kept at room temperature for 7 days.
as §3, §3

[2] = Solution stability of ^90Y-A at −78° C., RCP by radio-HPLC; settings: for RCP (%) change: t = 0 h to 72 h
Method: (§4) The integrity of a radiopharmaceutical is measured by the radiochemical purity (RCP) of the radiolabeled compound using ITLC or more preferably HPLC. The advantage of using HPLC is that radio-impurities caused by radiolytic degradation can be separated from the radiopharmaceutical under optimized chromatographic conditions. […] The radiopharmaceutical compositions of this invention are effective in maintaining the long-term stability of samples that have been frozen, thawed, and re-tested periodically for 7 days.
as §1, with “of time. For comparison purposes, sodium gentisate or sodium ascorbate was often used as the reference since they have been used in various radiopharmaceutical formulations.” for “of time.”
Analytical Methods. HPLC method 1 used a HP-1100 HPLC system with a UV/visible detector (λ=220 nm), an IN-US radio-detector, and a Zorbax C18 column (4.6 mm×250 mm, 80 Å pore size). The flow rate was 1 mL/min with the mobile phase being isocratic from 0 to 18 min using 87% solvent A (0.025 M ammonium acetate buffer, pH 6.8) and 13% solvent B (acetonitrile), followed by an isocratic wash using 40% of solvent A and 60% solvent B from 19 to 25 min.
The ITLC method used Gelman Sciences silica-gel ITLC paper strips and 1:1 mixture of acetone and saline as eluant. By this method, the radiolabeled compounds migrate to the solvent front while [^90Y]/^177Lu]colloid and [^90Y]/^177Lu]acetate remain at the origin.
^90Y-A was prepared using the procedure described in example 4. The resulting solution was the kept in a dry-ice box (−78° C.) for 3 days. Samples were analyzed at t=0, 24, 48, and 72 h.
To a lead-shielded clean 5 mL vial containing 100 μg of COMPOUND A and 2 mg of 3,4,5-trihydroxybenzoic acid (3,4,5-THBA) dissolved in 0.5 mL of 0.5 M ammonium acetate buffer (pH=8.0) was added 20 μL Of ^90YCl3 solution (˜20 mCi) in 0.05 N HCl. The reaction mixture was heated at 100° C. for 5 min. After cooling to room temperature, 0.5 mL of 3,4,5-THBA solution (20 mg/mL) in 0.5 M ammonium acetate buffer (pH=8.0) was added to the solution above. A sample of the resulting mixture was then diluted 20-fold with GA solution (10 mg/mL, pH=7.4), and analyzed by HPLC (Method 1, injection volume=1 μL) and ITLC. […] The resulting mixture was kept at −78° C. for 3 days. Samples were analyzed at t=0, 1, 2, and 3 days.
(§5) Synthesis of ^90Y-A was carried out according to the procedure described in example 12. After cooling to room temperature, 0.5 mL of 2,3,4-THBA solution (20 mg/mL) in 0.5 M ammonium acetate buffer (pH=8.0) was added to the solution containing ^90Y-A. The resulting mixture was kept at -78 °C for 3 days. Samples were analyzed at t=0, 1, 2, and 3 days.
as §5, with “DSA” for “2,3,4-THBA”, “−78° C.” for “-78 °C”
as §5, with “mL of HABA solution (20” for “mL of 2,3,4-THBA solution (20”, “kept at −78° C. for 3” for “kept at -78 °C for 3”, “3 days. […]” for “3 days.”
To a lead-shielded clean 30 mL vial containing 1000 μg of COMPOUND A and 100 mg of sodium gentisate (GA) dissolved in 5 mL of 0.5 M ammonium acetate buffer (pH=7.5) was added ˜250 μL of ^90YCl3 solution (˜200 mCi) in 0.05 N HCl. The reaction mixture was heated at 100° C. for 15 min. […]

[3] = Solution stability of ^90Y-B at −78° C., RCP by radio-HPLC; settings: ^90Y-B prepared with GA
Method: as §4
as §1, with “of time. For comparison purposes, sodium gentisate or sodium ascorbate was often used as the reference since they have been used in various radiopharmaceutical formulations.” for “of time.”
HPLC method 2 used a HP-1100 HPLC system with a UV/visible detector (λ=220 nm), an IN-US radio-detector, and a Zorbax C18 column (4.6 mm×250 mm, 80 Å pore size). The flow rate was 1 mL/min with a gradient mobile phase starting from 92% solvent A (0.025 M ammonium acetate buffer, pH 6.8) and 8% solvent B (acetonitrile) at 0 min to 90% solvent A and 10% solvent B at 18 min, followed by an isocratic wash using 40% of solvent A and 60% solvent B from 19 to 25 min.
The ITLC method used Gelman Sciences silica-gel ITLC paper strips and 1:1 mixture of acetone and saline as eluant. By this method, the radiolabeled compounds migrate to the solvent front while [^90Y]/^177Lu]colloid and [^90Y]/^177Lu]acetate remain at the origin. […]
The 0.5 M ammonium acetate buffer (pH 8.0) was first degassed under vacuum for 1-2 min. COMPOUND B and gentisic acid (sodium salt, GA) were dissolved in the degassed buffer to give a concentration of 100 μg/mL for COMPOUND B and 20 mg/mL for GA. The resulting solution was immediately degassed under vacuum for another 1-2 min. To a clean sealed 5 mL vial was added 1.0 mL of the degassed 0.5 M ammonium acetate buffer (pH 8.0) containing 100 μg COMPOUND B and 10 mg GA. The solution was degassed again under vacuum. Upon addition of ˜20 μL of ^90YCl3 solution (˜20 mCi) in 0.05 N HCl, the reaction mixture was heated at 100° C. for 5 min. After cooling to room temperature, a sample of the resulting solution was diluted 20-fold with saline containing gentisate (10 mg/mL), and was then analyzed by HPLC (Method 2, injection volume=1-2 μL) and ITLC. […] To the solution above was added 0.5 mL of sodium ascorbate solution (40 mg/mL in 0.5 M ammonium acetate buffer, pH=7.4). The resulting mixture was then kept in a dry-ice box (−78° C.) for 7 days. Samples were analyzed at t=0, 3 and 7 days.
The 0.5 M ammonium acetate buffer (pH 8.0) was first degassed under vacuum for 1-2 min. COMPOUND B and gentisic acid (sodium salt, GA) were dissolved in the degassed buffer to give a concentration of 100 μg/mL for COMPOUND B and 20 mg/mL for GA. The resulting solution was immediately degassed under vacuum for another 1-2 min. To a clean sealed 5 mL vial was added 1.0 mL of the degassed 0.5 M ammonium acetate buffer (pH 8.0) containing 100 μg COMPOUND B and 10 mg GA. The solution was degassed again under vacuum. Upon addition of ˜20 μL of ^90YCl3 solution (˜20 mCi) in 0.05 N HCl, the reaction mixture was heated at 100° C. for 5 min. After cooling to room temperature, a sample of the resulting solution was diluted 20-fold with saline containing gentisate (10 mg/mL), and was then analyzed by HPLC (Method 2, injection volume=1-2 μL) and ITLC. […] To the solution above was added 0.5 mL of 2,3,4-trihydroxybenzoic acid solution (20 mg/mL in 0.5 M ammonium acetate buffer, pH=6.5). The resulting mixture was then kept in a dry-ice box (−78° C.) for 7 days. Samples were analyzed at t=0, 3 and 7 days. […]

[4] = ^90Y-A, 10 mg stabilizer, dry-ice box (−78° C.)
[5] = ^90Y-A, 10 mg stabilizer, −78° C.
[6] = ^90Y-A prepared using 2 mg 3,4,5-THBA, second stabilizer (0.5 mL of 20 mg/mL) added after radiolabeling, −78° C.
[7] = degassed, second stabilizer (20 mg AA, 20 mg DSA, 10 mg 2,3,4-THBA, 10 mg HABA) added post-labeling

Structure (SMILES)	RCP (%) t = 0 h ([1]; 2 mg stabilizer)	RCP (%) t = 24 h ([1]; 2 mg stabilizer)	RCP (%) t = 48 h ([1]; 2 mg stabilizer)	RCP (%) t = 120 h ([1]; 2 mg stabilizer)	RCP (%) t = 144 h ([1]; 2 mg stabilizer)	RCP (%) t = 0 h ([1]; 10 mg stabilizer)	RCP (%) t = 24 h ([1]; 10 mg stabilizer)	RCP (%) t = 72 h ([1]; 10 mg stabilizer)	RCP (%) t = 148 h ([1]; 10 mg stabilizer)	RCP (%) change ([1]; 10 mg stabilizer)	RCP (%) t = 0 h [2, 4]	RCP (%) t = 24 h [2, 4]	RCP (%) t = 48 h [2, 4]	RCP (%) t = 72 h [2, 4]	RCP (%) change [2, 5]	further results
O=Cc1cc(O)c(O)c(O)c1 [3,4,5-THBAD, 3,4,5-trihydroxybenzaldehyde]	95.5%	92.8%	87.4%	84.9%	80.7%	88.1* %	82.3%	77.3%	68.4%	19.7%	88.2%	86.4%	87.3%	87.4%	0.8%	–
O=C([O-])c1cc(O)ccc1O.[Na+] [GA, sodium gentisate, reference compound]	94.6%	84.5%	80.7%	71.2%	69.7%	96.3%	92.6%	83.8%	77.3%	19%	96.4%	96.7%	95.4%	94.6%	1.8%	–
Nc1ccc(C(=O)O)cc1O [HABA, 3-hydroxy-4-aminobenzoic acid]	–	–	–	–	–	–	–	–	–	–	–	–	–	–	–	RCP (%) t = 0 h [2, 6]: 98.5%; RCP (%) t = 24 h [2, 6]: 98.3%; RCP (%) t = 48 h [2, 6]: 98.7%; RCP (%) t = 72 h [2, 6]: 98.1%; RCP (%) change ([2]; ^90Y-A prepared using 2 mg 3,4,5-THBA, second stabilizer added after radiolabeling, −78° C.): 0.4%; RCP (%) t = 0 [3, 7]: 94.8%; RCP (%) t = 3 days [3, 7]: 94.5%; RCP (%) t = 7 days [3, 7]: 94.0%; RCP (%) change ([3]; second stabilizer added post-labeling, t = 0 to 7 days): 0.8%
